The source of these data is patent publication US20240116885A1, “BENZOTHIAZOLE AND QUINOLINE DERIVATIVES AND THEIR USE” (Shanghai Yao Yuan Biotechnology Co., Ltd., priority 2020, published 2024).

Experiment [1] concerns ALPK1-dependent NFκB reporter gene activation. Put plainly: NFκB gene reporter alkaline phosphatase assay in HEK293 G9 cells. Format: cell-based. To be noted: Homo sapiens; HEK293 G9 cells stimulated with D-glycero-D-manno-6-fluoro-heptose-1β-S-ADP. The method, then: An alkaline phosphatase reporter assay system was used to measure inhibition of ALPK1-dependent NFκB reporter gene activation. Briefly, HEK293 cells stably expressing an NF-kB reporter (referred to herein as “G9 cells”) were maintained in DMEM as described above. For the assay, cells were seeded into 96-well plates at a density of 10,000 cells/well in Freestyle™ 293 Expression Medium (ThermoFisher), and allowed to attach overnight. Cells were pretreated with serially diluted compounds for 30 min and then stimulated with D-glycero-D-manno-6-fluoro-heptose-1β-S-ADP. […] NFkB gene activation was detected using the chromogenic substrate, para-nitrophenyl phosphate (pNPP) according to the manufacturer's protocols (pNPP Phosphatase Assay, Beyotime Biotechnology).

Experiment [2] has as its target ALPK1 (Homo sapiens (Human), UniProt Q96QP1). Put plainly: ALPK1 in vitro kinase assay (HTRF, TIFA phosphorylation). The conditions noted are these: ADP-Heptose activated ALPK1. Format: biochemical. The method, then:
ALPK1 kinase activity was measured in an in vitro assay using ADP-Heptose as the ALPK1 ligand and activator of its kinase activity and TIFA protein as the ALPK1 phosphorylation substrate. Since phosphorylated TIFA proteins oligomerize, Homogeneous Time-Resolved Fluorescence (HTRF) was used to measure protein:protein interaction between HA-tagged TIFA proteins as an indicator of TIFA phosphorylation.
In brief, dose-response studies were performed with HEK293 cells cultured in Dulbecco's Modified Eagle Medium (DMEM) supplemented 10% fetal bovine serum (FBS, Hyclone™) containing antibiotics (pen/strep, G418) in 384-well assay plates. Each well contained 0.1 mg TIFA, ALPK1 (2 nM final concentration in reaction mixture) and kinase buffer (100 mM of HEPES pH 7.4, 4 mM DTT, 40 mM MgCl2, 20 mM of β-Glycerol phosphate disodium salt, 0.4 mM of Na3VO4, 0.16 mg/mL). Titrations of the test compounds were prepared in dimethylsulphoxide (DMSO). The reaction was initiated by addition of ATP and ADP-Heptose.
For HTRF, samples were incubated with a Tb cryptate-labeled anti-HA antibody for capturing HA-tagged proteins according to the manufacturer's instructions (PerkinElmer™, CisBio™) and the fluorescence signal was quantified (Tecan Infinite F NANO+). HTRF signals were calculated as the HTRF ratio (ratio of fluorescence measured at 665 nm and 620 nm)×104 (thereby using the signal at 620 nm as an internal standard).
IC50 values were determined using 3- or 4-parameter logistic equation using GraphPad Prism version 6.00. The reference compound, A027, was used as a positive control for each plate.
(In general: In TR-FRET formats the signal depends on donor and acceptor labels being close together.)

Sequence of ALPK1 (Q96QP1 whole entry): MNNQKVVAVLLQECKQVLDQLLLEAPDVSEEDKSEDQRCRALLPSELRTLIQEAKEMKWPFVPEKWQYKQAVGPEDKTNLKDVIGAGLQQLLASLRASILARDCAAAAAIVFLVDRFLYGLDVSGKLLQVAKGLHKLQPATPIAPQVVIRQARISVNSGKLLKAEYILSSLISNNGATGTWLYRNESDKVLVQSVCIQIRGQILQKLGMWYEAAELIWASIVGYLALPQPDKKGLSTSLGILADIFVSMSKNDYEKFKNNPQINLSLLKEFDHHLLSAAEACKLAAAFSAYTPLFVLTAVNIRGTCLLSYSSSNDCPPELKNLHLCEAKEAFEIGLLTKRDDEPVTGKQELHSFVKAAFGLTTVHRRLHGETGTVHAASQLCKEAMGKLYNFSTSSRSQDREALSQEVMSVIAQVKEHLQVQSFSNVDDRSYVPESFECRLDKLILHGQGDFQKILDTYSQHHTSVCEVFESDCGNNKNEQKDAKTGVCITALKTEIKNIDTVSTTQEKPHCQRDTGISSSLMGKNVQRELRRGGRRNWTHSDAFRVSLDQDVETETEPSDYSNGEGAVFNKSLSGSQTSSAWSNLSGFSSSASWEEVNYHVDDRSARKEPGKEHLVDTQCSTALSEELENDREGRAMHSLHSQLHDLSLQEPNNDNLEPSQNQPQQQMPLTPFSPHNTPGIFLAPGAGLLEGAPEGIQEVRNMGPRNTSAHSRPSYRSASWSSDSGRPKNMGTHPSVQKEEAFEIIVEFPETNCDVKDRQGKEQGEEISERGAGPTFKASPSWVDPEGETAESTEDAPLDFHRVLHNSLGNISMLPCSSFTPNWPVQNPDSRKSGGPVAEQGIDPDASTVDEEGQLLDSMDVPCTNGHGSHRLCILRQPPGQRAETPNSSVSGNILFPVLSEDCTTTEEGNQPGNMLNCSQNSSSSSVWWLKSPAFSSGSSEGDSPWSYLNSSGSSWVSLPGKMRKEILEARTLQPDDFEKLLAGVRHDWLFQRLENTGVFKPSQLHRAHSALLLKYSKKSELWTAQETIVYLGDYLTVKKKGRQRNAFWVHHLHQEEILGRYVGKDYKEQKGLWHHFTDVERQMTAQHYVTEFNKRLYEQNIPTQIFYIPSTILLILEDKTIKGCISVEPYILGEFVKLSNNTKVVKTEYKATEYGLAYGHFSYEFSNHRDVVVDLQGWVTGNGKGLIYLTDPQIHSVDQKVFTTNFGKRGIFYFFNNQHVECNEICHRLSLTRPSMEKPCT

Consider `O=C(Nc1nc2c(C3CC3)cccc2s1)c1c(F)cccc1F` [Compound T012, N-(4-cyclopropylbenzo[d]thiazol-2-yl)-2,6-difluorobenzamide], for which the results for the half-maximal inhibitory concentration (IC50) in experiment [1] and in experiment [2] were 5950 nM and 970 nM, respectively.

For the molecule `COc1cccc2ccc(NC(=O)c3c(F)cc(N4CCC(O)CC4)cc3F)nc12` [Compound Q003, 2,6-difluoro-4-(4-hydroxypiperidin-1-yl)-N-(8-methoxyquinolin-2-yl)benzamide], the IC50 in experiment [1] was determined as 2970 nM; in experiment [2] it was 369 nM.

Take `COc1cc(F)cc2sc(NC(=O)c3c(F)cc(N4CCNCC4)cc3F)nc12` [Compound T030, 2,6-difluoro-N-(6-fluoro-4-methoxybenzo[d]thiazol-2-yl)-4-(piperazin-1-yl)benzamide]: the IC50 came to 2220 nM in experiment [1] and 318 nM in experiment [2].

With `CCN1CCN(c2cc(F)c(C(=O)Nc3nc4c(OC)cccc4s3)c(F)c2)CC1` [Compound T004, 4-(4-ethylpiperazin-1-yl)-2,6-difluoro-N-(4-methoxybenzo[d]thiazol-2-yl)benzamide], the IC50 in experiment [1] worked out at 1980 nM; in experiment [2], 131 nM.

Turning to `O=C(Nc1nc2c(Cl)cccc2s1)c1c(F)cc(N2CCNCC2)cc1F` [Compound T046, N-(4-chlorobenzo[d]thiazol-2-yl)-2,6-difluoro-4-(piperazin-1-yl)benzamide], the IC50 in experiment [1] is 1320 nM; in experiment [2], 56 nM.

Take `COc1cccc2sc(NC(=O)c3c(F)cc(N4CCC(O)CC4)cc3F)nc12` [Compound T028, 2,6-difluoro-4-(4-hydroxypiperidin-1-yl)-N-(4-methoxybenzo[d]thiazol-2-yl)benzamide]: the IC50 is 1490 nM in experiment [1] and 248 nM in experiment [2].

As to `C#Cc1cccc2sc(NC(=O)c3c(F)cc(N4CCN(C(N)=O)CC4)cc3F)nc12` [Compound T055, 4-(4-((4-ethynylbenzo[d]thiazol-2-yl)carbamoyl)-3,5-difluorophenyl)piperazine-1-carboxamide], the IC50 in experiment [1] is 2150 nM; in experiment [2], 126 nM.

As to `C#Cc1cccc2sc(NC(=O)c3c(F)cc(N4CCOCC4)cc3F)nc12` [Compound T063, N-(4-ethynylbenzo[d]thiazol-2-yl)-2,6-difluoro-4-morpholinobenzamide], the values for the IC50 in experiment [1] and in experiment [2] were 1280 nM and 165 nM, respectively.

As for `COc1cccc2sc(NC(=O)c3c(F)cc(NCCO)cc3F)nc12` [Compound T023, 2,6-difluoro-4-((2-hydroxyethyl)amino)-N-(4-methoxybenzo[d]thiazol-2-yl)benzamide], the IC50 in experiment [1] came out at 4300 nM; in experiment [2] it was 289 nM.

As to `Cc1cc(Cl)cc2sc(NC(=O)c3c(F)cc(N4CCNCC4)cc3F)nc12` [Compound T038, N-(6-chloro-4-methylbenzo[d]thiazol-2-yl)-2,6-difluoro-4-(piperazin-1-yl)benzamide], the IC50 was determined as 9980 nM in experiment [1] and 255 nM in experiment [2].

As to `COc1cccc2ccc(NC(=O)c3c(F)ccc(CN4CCNCC4)c3F)nc12` [Compound Q004, 2,6-difluoro-N-(8-methoxyquinolin-2-yl)-3-(piperazin-1-ylmethyl)benzamide], the IC50 turned out to be 4300 nM in experiment [1] and 33 nM in experiment [2].

Take `C#Cc1cccc2sc(NC(=O)c3c(F)cc(N4CCN(Cc5ccc(F)cc5)CC4)cc3F)nc12` [Compound T065, N-(4-ethynylbenzo[d]thiazol-2-yl)-2,6-difluoro-4-(4-(4-fluorobenzyl)piperazin-1-yl)benzamide]: the IC50 stood at 6580 nM in experiment [1] and 182 nM in experiment [2].

In the case of `COc1cccc2sc(NC(=O)c3c(F)cc(N4CCN(Cc5ccccc5)C(=O)C4)cc3F)nc12` [Compound T024, 4-(4-benzyl-3-oxopiperazin-1-yl)-2,6-difluoro-N-(4-methoxybenzo[d]thiazol-2-yl)benzamide], the IC50 in experiment [1] was found to be 1150 nM; in experiment [2], 321 nM.

In the case of `C#Cc1cccc2sc(NC(=O)c3c(F)cc(N4CC[C@H](N)C4)cc3F)nc12` [Compound T062, (S)-4-(3-aminopyrrolidin-1-yl)-N-(4-ethynylbenzo[d]thiazol-2-yl)-2,6-difluorobenzamide], the IC50 in experiment [1] is 880 nM; in experiment [2], 89 nM.

With `COc1cccc2ccc(NC(=O)c3c(F)ccc(N4CCNCC4)c3F)nc12` [Compound Q005, 2,6-difluoro-N-(8-methoxyquinolin-2-yl)-3-(piperazin-1-yl)benzamide], the results for the IC50 in experiment [1] and in experiment [2] were 1370 nM and 258 nM, respectively.

Turning to `O=C(Nc1nc2c(Br)cccc2s1)c1c(F)cc(CN2CCNCC2)cc1F` [Compound T020, N-(4-bromobenzo[d]thiazol-2-yl)-2,6-difluoro-4-(piperazin-1-ylmethyl)benzamide], the IC50 came to 1570 nM in experiment [1] and 100 nM in experiment [2].

As for `C#Cc1cccc2sc(NC(=O)c3c(F)cc(N4CC[C@@H](N)C4)cc3F)nc12` [Compound T053, (R)-4-(3-aminopyrrolidin-1-yl)-N-(4-ethynylbenzo[d]thiazol-2-yl)-2,6-difluorobenzamide], the IC50 was 890 nM in experiment [1] and 83 nM in experiment [2].

As to `C#Cc1cccc2sc(NC(=O)c3c(Cl)cc(N4CCNCC4)cc3Cl)nc12` [Compound T048, 2,6-dichloro-N-(4-ethynylbenzo[d]thiazol-2-yl)-4-(piperazin-1-yl)benzamide], the IC50 in experiment [1] turned out to be 7130 nM; in experiment [2], 9 nM.

Take `C#Cc1cccc2sc(NC(=O)c3c(C)cc(N4CCNCC4)cc3F)nc12` [Compound T050, N-(4-ethynylbenzo[d]thiazol-2-yl)-2-fluoro-6-methyl-4-(piperazin-1-yl)benzamide]: the results for the half-inhibitory concentration (IC50) in experiment [1] and in experiment [2] were 960 nM and 98 nM, respectively.

On to `C#Cc1cccc2sc(NC(=O)c3c(F)cc(N4CCNCC4C(C)C)cc3F)nc12` (centres unmarked) [Compound T051, N-(4-ethynylbenzo[d]thiazol-2-yl)-2,6-difluoro-4-(2-isopropylpiperazin-1-yl)benzamide], for which the IC50 in experiment [1] was found to be 1590 nM; in experiment [2], 56 nM.

As for `C#Cc1cccc2sc(NC(=O)c3c(F)cc(N4CCNCC4CC)cc3F)nc12` (centres unmarked) [Compound T052, 4-(2-ethylpiperazin-1-yl)-N-(4-ethynylbenzo[d]thiazol-2-yl)-2,6-difluorobenzamide], the IC50 in experiment [1] was 1320 nM; in experiment [2] it was 58 nM.

For `COc1cc(F)cc2ccc(NC(=O)c3c(F)cc(N4CCNCC4)cc3F)nc12` [Compound Q007, 2,6-difluoro-N-(6-fluoro-8-methoxyquinolin-2-yl)-4-(piperazin-1-yl)benzamide], the figures for the IC50 in experiment [1] and in experiment [2] were 6780 nM and 176 nM, respectively.

`O=C(Nc1nc2c(Br)cccc2s1)c1c(F)cc(N2CCNC(CO)C2)cc1F` (centres unmarked) [Compound T033, N-(4-bromobenzo[d]thiazol-2-yl)-2,6-difluoro-4-(3-(hydroxymethyl)piperazin-1-yl)benzamide]: the IC50 in experiment [1] was determined as 1330 nM; in experiment [2], 38 nM.

For the molecule `COc1cccc2sc(NC(=O)c3c(F)cc(N4CCNC(C)C4)cc3F)nc12` (centres unmarked) [Compound T015, 2,6-difluoro-N-(4-methoxybenzo[d]thiazol-2-yl)-4-(3-methylpiperazin-1-yl)benzamide], the half-maximal inhibitory concentration (IC50) in experiment [1] is 4470 nM; in experiment [2], 349 nM.

For the molecule `C#Cc1cccc2sc(NC(=O)c3c(F)cc(N4CCNCC4C)cc3F)nc12` (centres unmarked) [Compound T059, N-(4-ethynylbenzo[d]thiazol-2-yl)-2,6-difluoro-4-(2-methylpiperazin-1-yl)benzamide], the IC50 in experiment [1] was 550 nM; in experiment [2], 43 nM.

Broadly, the IC50 is the concentration at which inhibition is half-maximal. The low end stands for inhibition by little substance, the high end for a need for much substance.
